Laboratory results published in ChEMBL document CHEMBL1151278, “Hygrocins a and B, naphthoquinone macrolides from Streptomyces hygroscopicus” (2005).
In brackets after ≈: the same amount, converted by molar mass.

How the values were obtained:
Type in all cases: functional
[1] = test system: Staphylococcus aureus; assay: Antibacterial activity against Staphylococcus aureus 2999 by NCCLS M27A method
[2] = test system: Streptococcus pneumoniae; assay: Antibacterial activity against Streptococcus pneumoniae by NCCLS M27A method
[3] = test system: Enterococcus faecalis; assay: Antibacterial activity against Streptococcus faecalis 1362/3 by NCCLS M27A method
[4] = test system: Haemophilus influenzae; assay: Antibacterial activity against Haemophilus influenzae by NCCLS M27A method
[5] = test system: Neisseria gonorrhoeae; assay: Antibacterial activity against Neisseria gonorrhoeae by NCCLS M27A method
[6] = test system: Escherichia coli; assay: Antibacterial activity against Escherichia coli 1074 by NCCLS M27A method
[7] = test system: Candida albicans; assay: Antifungal activity against Candida albicans by NCCLS M27A method
[8] = test system: Aspergillus fumigatus; assay: Antifungal activity against Aspergillus fumigatus by NCCLS M27A method
[9] = test system: Aspergillus niger; assay: Antifungal activity against Aspergillus niger by NCCLS M27A method
[10] = test system: Staphylococcus aureus; assay: Antibacterial activity against Staphylococcus aureus 2999
[11] = test system: Streptococcus pneumoniae; assay: Antibacterial activity against Streptococcus pneumoniae
[12] = test system: Enterococcus faecalis; assay: Antibacterial activity against Streptococcus faecalis 1362/3
[13] = test system: Haemophilus influenzae; assay: Antibacterial activity against Haemophilus influenzae
[14] = test system: Neisseria gonorrhoeae; assay: Antibacterial activity against Neisseria gonorrhoeae
[15] = test system: Escherichia coli; assay: Antibacterial activity against Escherichia coli 1074

Row | Compound | MIC [1] | MIC [2] | MIC [3] | MIC [4] | MIC [5] | MIC [6] | MIC [7] | MIC [8] | MIC [9] | MIC [10] | MIC [11] | MIC [12] | MIC [13] | MIC [14] | MIC [15]
1 | CCC1/C=C/[C@H](O)[C@H](C)OC(=O)/C(C)=C\CC(=O)NC2=CC(=O)c3c(cc(C)c(O)c3C(=O)CC1)C2=O (some centres undefined) [HYGROCIN A] | 128 µg/mL (≈ 251 µM) | 16 µg/mL (≈ 31.4 µM) | 128 µg/mL (≈ 251 µM) | 128 µg/mL (≈ 251 µM) | 64 µg/mL (≈ 126 µM) | 128 µg/mL (≈ 251 µM) | 128 µg/mL (≈ 251 µM) | 16 µg/mL (≈ 31.4 µM) | 32 µg/mL (≈ 62.8 µM) |  |  |  |  |  | 
2 | CCC1/C=C/[C@H](O)[C@H](C)OC(=O)[C@@]2(C)C=CC(=O)NC3=C2C(=O)c2c(cc(C)c(O)c2C(=O)CC1)C3=O (some centres undefined) [HYGROCIN B] | 128 µg/mL (≈ 252 µM) | 128 µg/mL (≈ 252 µM) | 128 µg/mL (≈ 252 µM) | 128 µg/mL (≈ 252 µM) | 128 µg/mL (≈ 252 µM) | 128 µg/mL (≈ 252 µM) | 128 µg/mL (≈ 252 µM) | 32 µg/mL (≈ 63 µM) | 64 µg/mL (≈ 126 µM) |  |  |  |  |  | 
3 | CO[C@H]1/C=C/O[C@@]2(C)Oc3c(C)c(O)c4c(c3C2=O)C(=O)C=C(NC(=O)/C(C)=C\C=C\[C@H](C)[C@H](O)[C@@H](C)[C@@H](O)[C@@H](C)[C@H](OC(C)=O)[C@@H]1C)C4=O [RIFAMYCIN S] |  |  |  |  |  |  |  |  |  | 0.01 µg/mL (≈ 0.0144 µM) | 0.1 µg/mL (≈ 0.144 µM) | 16 µg/mL (≈ 23 µM) | 0.01 µg/mL (≈ 0.0144 µM) | 0.1 µg/mL (≈ 0.144 µM) | 128 µg/mL (≈ 184 µM)
